Data from PubChem BioAssay (NCI).
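Where inhibition never reached the appropriate level, the endpoint shown equals the highest concentration tested. Otherwise, values were interpolated linearly from a five-concentration, 48-hour dose response in 96-well plates. GI50: concentration for 50% inhibition of growth. TGI marks complete inhibition of growth.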

Columns and labels:
Experiment in all cases: inhibition of tumour cell growth, NCI panel, 48 h
[1] = system: MDA-MB-435
[2] = system: UACC-62 melanoma
[3] = system: SK-OV-3 ovarian
[4] = system: SF-295 CNS
[5] = system: TK-10 renal
[6] = system: SK-MEL-28 melanoma
[7] = system: HOP-92 NSCLC
[8] = system: ACHN renal
[9] = system: OVCAR-4 ovarian
[10] = system: MOLT-4 leukemia
[11] = system: BT-549 breast
[12] = system: M14 melanoma
[13] = system: RPMI-8226 leukemia
[14] = system: NCI-H460 lung
[15] = system: UO-31 renal
[16] = system: SR leukemia
[17] = system: PC-3 prostate
[18] = system: T-47D breast
[19] = system: MALME-3M melanoma
[20] = system: COLO 205 colon
[21] = system: SK-MEL-2 melanoma
[22] = system: A498 renal
[23] = system: RXF 393 renal
[24] = system: EKVX NSCLC
[25] = system: CCRF-CEM leukemia
[26] = system: OVCAR-5 ovarian
[27] = system: SK-MEL-5 melanoma
[28] = system: LOX IMVI melanoma
[29] = system: DU-145 prostate

COc1ccc(N=C2NN=C(c3c[nH]c4ccccc34)CS2)cc1OC
GI50 [1]: 1.3 µM
TGI [1]: 4 µM
GI50 [2]: 4.81 µM
TGI [2]: > 100 µM
GI50 [3]: 14.2 µM
TGI [3]: > 100 µM
GI50 [4]: 4.29 µM
TGI [4]: > 100 µM
GI50 [5]: 38 µM
TGI [5]: > 100 µM
GI50 [6]: 15.3 µM
TGI [6]: > 90.4 µM
GI50 [7]: 5.81 µM
TGI [7]: > 58.1 µM
GI50 [8]: 17.3 µM
TGI [8]: > 100 µM
GI50 [9]: 16 µM
TGI [9]: > 100 µM
GI50 [10]: 3.29 µM
TGI [10]: > 100 µM
GI50 [11]: 4.2 µM
TGI [11]: > 42.5 µM
GI50 [12]: 4.49 µM
TGI [12]: > 100 µM
GI50 [13]: 3.66 µM
TGI [13]: > 29.6 µM
GI50 [14]: 4.11 µM
TGI [14]: > 45.2 µM
GI50 [15]: 5.81 µM
TGI [15]: > 100 µM
GI50 [16]: 0.181 µM
TGI [16]: > 100 µM
TGI [17]: > 45.8 µM
GI50 [18]: 5.04 µM
TGI [18]: > 73.3 µM
GI50 [19]: 15 µM
TGI [19]: > 69.1 µM
GI50 [20]: 6.55 µM
TGI [20]: > 76.5 µM
GI50 [21]: > 100 µM
TGI [21]: > 100 µM
GI50 [22]: 4.43 µM
TGI [22]: > 61.3 µM
GI50 [23]: 6.19 µM
TGI [23]: > 25.7 µM
GI50 [24]: 8.77 µM
TGI [24]: > 100 µM
GI50 [25]: 3.7 µM
TGI [25]: > 100 µM
GI50 [26]: > 70.6 µM
TGI [26]: > 100 µM
GI50 [27]: 3.6 µM
TGI [27]: 23.4 µM
GI50 [28]: 6.1 µM
TGI [28]: > 100 µM
GI50 [29]: 19.5 µM
TGI [29]: > 87.7 µM
